Like-named read-outs stand apart in the source and are kept apart here.
Assays:
[1] = tested on: MDA-MB-231 breast cancer cell; experiment: MTT cell viability assay, MDA-MB-231 breast cancer cell; format: cell-based, human; details: for IC50: Homo sapiens
Experimental: Cell viability was evaluated by measuring the reduction in MTT to yield blue formazan. Cells were cultured in 96-well plates, allowed to attach overnight, and then treated with compounds. After treatment, MTT solution (1 mg/ml) was added to each well, and plates were incubated for another 4 h.

[2] = tested on: HCT-116 colon cancer cell; experiment: MTT cell viability assay, HCT-116 colon cancer cell; format: cell-based; details: Homo sapiens
Experimental: (§1) Cell viability was evaluated by measuring the reduction in MTT to yield blue formazan. Cells were cultured in 96-well plates, allowed to attach overnight, and then treated with compounds. After treatment, MTT solution (1 mg/ml) was added to each well, and plates were incubated for another 4 h. Medium were removed, blue formazan was dissolved in DMSO, and the absorbance was read at 570 nm^20.

PC3 prostate cancer cell = experiment: MTT cell viability assay, PC3 prostate cancer cell; format: cell-based
Experimental: as §1

T47D = experiment: Cell viability, T47D breast cancer cells; format: cell-based; details: Homo sapiens; T47D (ER+/PR+), treated for 24 h
Experimental: as §1

MCF-7 = experiment: Cell viability, MCF-7 breast cancer cells; format: cell-based; details: Homo sapiens, MCF7; MCF-7 (ER+/PR+), treated for 24 h
Experimental: as §1

MDA-MB-453 = experiment: Cell viability, MDA-MB-453 breast cancer cells; format: cell-based; details: Homo sapiens; MDA-MB-453 (Her-2+), treated for 24 h
Experimental: as §1

BT-474 = experiment: Cell viability, BT-474 breast cancer cells; format: cell-based; details: Homo sapiens; BT-474 (Her-2+), treated for 24 h
Experimental: as §1

SKBR-3 = experiment: Cell viability, SKBR-3 breast cancer cells; format: cell-based; details: Homo sapiens, SK-BR-3; SKBR-3 (Her-2+), treated for 24 h
Experimental: as §1

HS-578T = experiment: Cell viability, HS-578T breast cancer cells; format: cell-based; details: Homo sapiens; HS-578T (Triple negative), treated for 24 h
Experimental: as §1

[3] = tested on: Doxorubicin-resistant MDA-MB-231; experiment: Cell viability, Doxorubicin-resistant MDA-MB-231; format: cell-based; details: for IC50: Doxorubicin-resistant MDA-MB-231, treated for 24 h
Experimental: as §1

[4] = tested on: various breast cancer cell lines; experiment: Cell viability, various breast cancer cell lines (21a compared with curcumin); format: cell-based; details: TNBC cells
Experimental: as §1

[5] = Solubility in water or alcohol; format: physicochemical; details: compared with curcumin
[6] = Preliminary acute toxicity assay; details: 21 days observation
Experimental: Normal mice were treated with 21a or 35a by oral route at 500 mg/kg/day for 5 consecutive days, following by 21 days of post-treatment observation. […] Detailed data for their toxicology and safety pharmacology studies will be carried out in the near future.
Female nu/nu mice (5 weeks old) were P.O. with vehicle (propylene glycol, 0.1 ml) or high dose of 21a (250 and 500 mg/kg) and 35a (500 mg/kg) for 5 days followed by observation of behavior and lethargy for 21 days.

MDA-MB-231 cells [7] = experiment: Cell cycle distribution analysis (PI, flow cytometry); format: cell-based, human; details: 5 μM, 24 h
Experimental: For cell cycle and sub-G1 (apoptosis) determinations, the harvested cells were fixed gently by putting 70% ethanol in 4° C. overnight and then re-suspended in PBS containing 40 μg/ml PI and 0.1 mg/ml RNase and 0.1% Triton X-100 in dark room for 30 min at 37° C. Those cells were analyzed with a flow cytometer equipped with an argon ion laser at 488 nm wavelength^22.

CDK1 = CDK1 kinase assay on extracts of treated cells; format: cell-based, human; details: 4-12 h of treatment
Experimental: CDK1 kinase activity was analyzed according to the protocol of Medical & Biological Laboratories CDK1 kinase assay kit (MBL International, Nagoya, Japan). In brief; the ability of cell extract prepared from each treatment was measured to phosphorylate its specific substrate, MV Peptide as described previously^23.

MDA-MB-231 cells [8] = experiment: Western blot analysis of treated cells; format: cell-based, human
Experimental: After treatments, cells were harvested, washed, and suspended in PBS containing proteinase inhibitors and then disrupted with sonication. Protein concentrations were estimated using the Protein Assay kit from Bio-Rad (Hercules, Calif., USA). Samples were resolved with SDS-PAGE and transferred to a polyvinylidene difluoride membrane (EMD Millipore). Each membrane was blocked in 5% (w/v) non-fat milk in Tris-buffered saline with 0.1% (v/v) Tween-20 for 1 h followed by incubation with specific primary antibodies at 4° C. overnight. Each membrane was then incubated with horseradish peroxidase-conjugated secondary antibodies at room temperature for 1 h. Protein signals were detected with the Immobilon Western Chemiluminescent HRP Substrate (EMD Millipore) and visualized using the LAS-4000 imaging system (Fuji, Tokyo, Japan)^25.

MDA-MB-231 cells [9] = experiment: Immunofluorescence staining LC3B and p62; format: cell-based, human; details: 5 μM and 10 μM, 24 h
Experimental: Cells were grown on sterile coverslips placed in a 6-well plate. After treatments, cells were fixed with 4% (w/v) paraformaldehyde and permeabilized with 0.2% (v/v) Triton X-100 in PBS. After blocking with 2% (w/v) bovine serum albumin in PBS, […] was detected using anti-LC3B and anti-p62 antibody followed by reaction with FITC or PE-conjugated secondary antibody (BD Biosciences). Coverslips were mounted on glass slides with Prolong Gold Antifade Reagent containing DAPI (Invitrogen), and fluorescence images were taken on a Leica Microsystems TCS SP2 Confocal Spectral microscope^26.

Experimental for MDA-MB-231 Xenograft: Female nu/nu mice (5 weeks old) were from National Laboratory Animal Center, Taipei, Taiwan. […] MDA-MB-231 breast cancer cells (5×10^6 cells per mouse) were suspended in 0.1 ml of Matrigel solution (50% (v/v) Matrigel in PBS) and inoculated into the mammary fat pads of the mice. […] Compounds was administered P.O. once every day for 32 days. Tumor size and mouse body weight were measured once every 4 days, and tumor volume (mm3) was calculated using the equation: length×(width)^2×0.5. At the end of experiments, mice were sacrificed and tumor nodules were dissected and weighed.

COc1cc(/C=C/C(=O)/C=C(O)/C=C/c2ccc(OC(=O)C(C)(CO)CO)c(OC)c2)ccc1OC(=O)C(C)(CO)CO [Compound 21a, ((1E,3Z,6E)-3-Hydroxy-5-oxohepta-1,3,6-triene-1,7-diyl)bis(2-methoxy-4,1-phenylene) bis(3-hydroxy-2-(hydroxymethyl)-2-methylpropenoate)]
viability of MDA-MB-231 cells ([1]; 0, 1, 3, 5 and 10 μM, 24 h, concentration-dependent): significantly reduced
combination effect with Doxorubicin ([1]; 21a in combination with Doxorubicin, MDA-MB-231 cells): Synergistic anticancer effect
IC50 ([1]; MDA-MB-231, treated 24 hours, read-out: IC50 24 hours): 5.37 ± 1.22 µM
IC50 ([1]; MDA-MB-231, treated 48 hours, read-out: IC50 48 hours): 3.06 ± 0.18 µM
IC50 ([1]; MDA-MB-231, treated 72 hours, read-out: IC50 72 hours): 2.67 µM
times more potent than curcumin (IC50) ([1]; MDA-MB-231, 72 h treatment, curcumin IC50 16.23 μM): 6.2 times
IC50 ([2]; HCT-116, treated 24 hours, read-out: IC50 24 hours): 10.5 ± 1.03 µM
IC50 ([2]; HCT-116, treated 48 hours, read-out: IC50 48 hours): 6.25 ± 0.596 µM
IC50 ([2]; HCT-116, treated 72 hours, read-out: IC50 72 hours): 3.91 ± 0.27 µM
IC50 (PC3 prostate cancer cell; PC-3, treated 24 hours, read-out: IC50 24 hours): 7.8 ± 0.03 µM
IC50 (PC3 prostate cancer cell; PC-3, treated 48 hours, read-out: IC50 48 hours): 6 ± 0.35 µM
IC50 (PC3 prostate cancer cell; PC-3, treated 72 hours, read-out: IC50 72 hours): 3.9 ± 0.08 µM
IC50 (T47D): 19.3 ± 1.71 µM
IC50 (MCF-7): 6.13 ± 0.51 µM
IC50 (MDA-MB-453): 3.97 ± 0.27 µM
IC50 (BT-474): 6.15 ± 0.87 µM
IC50 (SKBR-3): 6.39 ± 0.43 µM
IC50 (HS-578T): 7.96 ± 0.27 µM
times greater inhibitory activity than curcumin ([3]; Doxorubicin-resistant MDA-MB-231): 10 times
IC50 [3]: 6.52 ± 1.7 µM
IC50 ([3]; Homo sapiens, MDA-MB-231, 24 h): 6.5 µM
times greater inhibitory activity than curcumin [4]: 3.4-7.4 times
solubility in either water or alcohol [5]: better than that of curcumin
behavior and death at end of experiment ([6]; P.O. 21a 250 and 500 mg/kg, 35a 500 mg/kg for 5 days): no behavior alternation and death
body weight and behavior change ([6]; oral 500 mg/kg/day for 5 consecutive days, vs untreated control): no significant difference
G2/M cell population (MDA-MB-231 cells [7]): significantly increased
CDK1 activity (CDK1): significant decrease
levels of Cyclin B and CDK 1 (MDA-MB-231 cells [8]; 5 μM, 0-24 h): down-regulated
levels of Bcl-2, Bcl-x (MDA-MB-231 cells [8]; 10 μM, 0-24 h): downregulated
levels of CHOP, Bip (MDA-MB-231 cells [8]; 10 μM, 0-24 h): up-regulated
levels of DR5, FADD, Bax (MDA-MB-231 cells [8]; 10 μM, 0-24 h): up-regulated
levels of Ero1, PD1, PERK1, Calnexin, IRE1α (MDA-MB-231 cells [8]; 10 μM, 0-24 h): downregulated
levels of Atg5, Atg7, Atg12, Beclin, p62 and LC3B (MDA-MB-231 cells [8]; 10 μM, 4-24 h, time-dependent): induced
LC3B-positive and p62-positive cells (MDA-MB-231 cells [9]): significantly increased
tumor weight smaller than that of the control group (MDA-MB-231 Xenograft; 21a PO combined with Doxorubicin IP 1 mg/kg/day): 80%
reduction of MDA-MB-231 tumor weight compared with control group (MDA-MB-231 Xenograft; 21a alone, PO (50 mg/kg/day)): 60%
effect of combined use on antitumor activity of Doxorubicin (MDA-MB-231 Xenograft; 21a with Doxorubicin): enhance the antitumor activity of Doxorubicin

— US10787413B2, “Derivatives of curcuminoids and use thereof as an anticancer agent” (CHINA MEDICAL UNIVERSITY, priority 2016, dated 2020)
